Reference: PubChem BioAssay (NCI)
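Results reflect a 48-hour exposure of cells in 96-well plates to compound at five concentrations. TGI denotes the concentration required for complete inhibition of growth.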

Tests used:
Test in all cases: NCI anticancer screen, dose series, 48 h
[1] = system: COLO 205 colon
[2] = system: MALME-3M melanoma
[3] = system: LOX IMVI melanoma
[4] = system: NCI-H226 lung
[5] = system: IGROV1 ovarian
[6] = system: EKVX NSCLC
[7] = system: SR leukemia
[8] = system: RXF 393 renal
[9] = system: M14 melanoma
[10] = system: CCRF-CEM leukemia
[11] = system: OVCAR-8 ovarian
[12] = system: DMS 273 small cell lung
[13] = system: CAKI-1 renal
[14] = system: SNB-75 CNS
[15] = system: UACC-257 melanoma
[16] = system: A549 NSCLC
[17] = system: NCI-H23 lung
[18] = system: SF-539 CNS
[19] = system: HOP-92 NSCLC
[20] = system: HOP-62 NSCLC
[21] = system: SNB-78 CNS
[22] = system: HL-60(TB) leukemia
[23] = system: OVCAR-3 ovarian
[24] = system: SF-295 CNS
[25] = system: SK-OV-3 ovarian
[26] = system: NCI-H522 lung
[27] = system: TK-10 renal
[28] = system: NCI-H460 lung
[29] = system: MOLT-4 leukemia
[30] = system: KM20L2 colon
[31] = system: HCT-116 colon
[32] = system: SNB-19 CNS
[33] = system: K-562 leukemia
[34] = system: UACC-62 melanoma
[35] = system: HT29 colon
[36] = system: DMS 114 small cell lung
[37] = system: SN12C renal
[38] = system: SK-MEL-2 melanoma
[39] = system: OVCAR-5 ovarian
[40] = system: SF-268 CNS
[41] = system: HCC-2998 colon
[42] = system: ACHN renal
[43] = system: DLD-1 colon
[44] = system: LXFL 529 NSCLC
[45] = system: U251 CNS
[46] = system: M19-MEL melanoma
[47] = system: 786-0 renal
[48] = system: SW-620 colon
[49] = system: HOP-18 NSCLC
[50] = system: RPMI-8226 leukemia
[51] = system: SK-MEL-5 melanoma
[52] = system: SK-MEL-28 melanoma
[53] = system: HCT-15 colon
[54] = system: OVCAR-4 ovarian
[55] = system: KM12 colon

Measured: TGI

N/N=C(\CCN1CCCC1)CC(c1ccccc1)c1c(O)c2ccccc2oc1=O (stereo not given)
> 100 µM: all assays above
